Test results taken from patent US12565661B2, “Compositions and methods for weed control” (Syngenta Crop Protection AG, priority 2019, dated 2026).
“And” between values parts separate entries of the source, which are not always exact repeats. Identical values can stand only once.

What was measured:
Format in all cases: in vivo
[1] = tested on: transgenic tobacco overexpressing Arabidopsis SDPS F240L gene and wild-type tobacco; assay: Herbicide damage of transgenic tobacco sprayed with 75 g/ha Aclonifen or 25 g/ha herbicide Z; conditions: 7 days post treatment; for average herbicide damage score: 75 g/ha
Method: A further set of transgenic tobacco overexpressing the Arabidopsis SDPS F240L gene (SEQ ID NO.3) were created as described above. These plants were sprayed with 75 g/ha Aclonifen or 25 g/ha herbicide Z. The plants were assessed for herbicide damage at 7 days post treatment and compared to wild-type tobacco plants.
Numerous transgenic tobacco events expressing the Arabidopsis SDPS2 F240L gene (SEQ ID NO.3) show no damage from the herbicide treatment in contrast to the damage seen on the control plants. The average herbicide damage scores for the transgenic tobacco population versus the control wild-type plants are shown in table 6.

[2] = tested on: Nicotiana tabacum Samsun wild type and transgenic lines (plantlets); assay: Tolerance of transgenic tobacco T1 lines in liquid culture, bleaching damage score; conditions: after 7 days
Method: Nicotiana tabacum Samsun wild type and transgenic lines were sterilized by placing in 30 ml Universals containing approximately 15 ml freshly made 2% Virkon and rotated on a roller for 15 mins. The Virkon was pipetted off using an extended fine tip mini pastette and the seed washed 4 times with 1% PPM (Plant Preservative Mixture, P820, 250 ml. Apollo Scientific Ltd.)
Seed was germinated on 90 mm Petri dishes containing 1/3 MS+0.8% agarose (SPI, Duchefa #DU 0463). pH5.7 (for WT) and 1/3 MS+0.8% agarose+100 ug/ml kanamycin (for the transgenic). Approximately 100 seed of each was spread on to each Petri dish. NB the transgenic seed is not homozygous therefore was plated on Kan to select. (MS=Murashige & Skoog MS Medium, #M0221, Melford Labs).
Plates were placed in a clear plastic “incubating box” (lids under plate) and incubated in a controlled environment room with the following conditions: • Temperature: Day 25° C./Night 25° C. • Light settings: Photo period 16 hours, Light level ˜50 μmol/m^2/s Dose Response Test:
7 day old tobacco plantlets (3 plantlets per well) were transferred aseptically to 24 well plates (cell-culture cluster flat bottom with lid) (Corning Costar #3524) containing 2 ml % MS+30 mM sucrose (Fisher #10638403), pH5.7 per well. Herbicide 2 was two-fold serially diluted in DMSO starting at 10 ppm and added to the media. DMSO only was added to the zero compound control wells. NB.
Plates were placed in clear plastic “Incubating boxes” (lid under plate) and incubated for 2 weeks in a controlled environment room with the following conditions: • Temperature: Day 24° C./Night 18° C. • Light settings: Photo period 16 hours, Light level 600 μmol/m^2/s. Assessment:
Plantlets were assessed visually for bleaching symptomology after 7 days and a damage score given for each well.

[3] = tested on: transgenic tobacco expressing SDPS genes and wild-type Samsun tobacco; assay: Herbicide tolerance of transgenic tobacco sprayed with 1000 g/ha Herbicide Compound 1, visual damage score; conditions: for Average Damage (%): 1000 g/ha spray, average across population
Excerpt: Populations of transgenic tobacco comprising 20-30 transgenic events per plant transformation constructs were generated as described in example 4. These lines were clonally propagated and 1 clone per event was sprayed with 1000 g/ha of Herbicide Compound 1. Herbicidal damage was visually assessed across the population and a herbicide damage score given at 7 and 14 days. […] indicates no visible damage or stunting whereas a score of 100 indicates a complete death of the plant.
The results in FIG. 3 show the damage scores for 4 populations of plants expressing either Arabidopsis SDPS2 gene (SEQ ID NO.2), the Arabidopsis SDPS2 F240L mutated gene (SEQ ID NO.3). the Chlorella fusca SDPS gene (SEQ ID NO. 10) or the Chlorella fusca SDPS F227L mutated gene (SEQ ID NO.11). A control population of wild-type Samsun tobacco was also assessed for herbicide damage. […] The Arabidopsis gene (SEQ ID NO.2) performs better than the Chlorella wild-type gene in terms of herbicide tolerance and this tolerance is again improved by the addition of the F240L mutation (SEQ ID NO.3).

Nc1c([N+](=O)[O-])ccc(Oc2ccccc2)c1Cl [Aclonifen]
average herbicide damage score ([1]; Wild type tobacco): 40 | average herbicide damage score ([1]; pBin AraSDPS2 F240L transgenic tobacco): 16.17 | herbicide damage score ([1]; wild type tobacco, individual control plants, Aclonifen 75 g/ha spray): 35 (4×) and 30 (2×) and 60 (2×)

CCOC(=O)C(C)N(c1c(C)cccc1C)S(=O)(=O)CC (stereo not shown) [Herbicide Compound Ex. 2]
bleaching damage score (two replicate plates a/b) ([2]; 0.75 ppm, WT (Samsun)): 0/0 | bleaching damage score (two replicate plates a/b) ([2]; 0.75 ppm, tobacco line ARA SDPS1): 0/0 | bleaching damage score (two replicate plates a/b) ([2]; 0.75 ppm, tobacco line ARA SDPS F240V 1): 0/0 | bleaching damage score (two replicate plates a/b) ([2]; 1.25 ppm, WT (Samsun)): 0/0 | bleaching damage score (two replicate plates a/b) ([2]; 1.25 ppm, tobacco line ARA SDPS1): 0/0 | bleaching damage score (two replicate plates a/b) ([2]; 1.25 ppm, tobacco line ARA SDPS F240V 1): 0/0 | bleaching damage score (two replicate plates a/b) ([2]; 2.5 ppm, WT (Samsun), listed as Herbicide 2): 25/25 and 50/50 | bleaching damage score (two replicate plates a/b) ([2]; 2.5 ppm, tobacco line ARA SDPS1, listed as Herbicide 2): 50/50 and 50/25 and 25/25 | bleaching damage score (two replicate plates a/b) ([2]; 2.5 ppm, tobacco line ARA SDPS F240V 1): 25/25 | bleaching damage score (two replicate plates a/b) ([2]; 5 ppm, WT (Samsun), listed as Herbicide 2): 90/100 and 95/90 | bleaching damage score (two replicate plates a/b) ([2]; 5 ppm, tobacco line ARA SDPS1, listed as Herbicide 2): 100/100 and 90/80 and 80/95 | bleaching damage score (two replicate plates a/b) ([2]; 5 ppm, tobacco line ARA SDPS F240V 1, listed as Herbicide 2): 50/50 (2×) and 50/25 | bleaching damage score (two replicate plates a/b) ([2]; 10 ppm, WT (Samsun), listed as Herbicide 2): 100/100 and 95/100 | bleaching damage score (two replicate plates a/b) ([2]; 10 ppm, tobacco line ARA SDPS1): 100/100 | bleaching damage score (two replicate plates a/b) ([2]; 10 ppm, tobacco line ARA SDPS F240V 1, listed as Herbicide 2): 90/100 (2×) and 100/100

CCOC(=O)C(CC)N(c1c(C)cccc1C)S(=O)(=O)CCl (stereo not shown) [Herbicide Compound Ex. 1]
Average Damage (%) ([3]; WT Control tobacco): 23.125% | Average Damage (%) ([3]; tobacco with construct pBin TMV AraSDPS2): 13.25% | Average Damage (%) ([3]; tobacco with construct pBin TMV AraSDPS2_F240L): 5% | Average Damage (%) ([3]; tobacco with construct pBin TMV CfSDPS): 25% | Average Damage (%) ([3]; tobacco with construct pBin TMV CfSDPS_F227L): 10.05% | tolerance to herbicide (in words) ([3]; tobacco expressing Chlorella fusca SDPS F227L (SEQ ID NO.11)): does display increased tolerance | tolerance to herbicide (in words) ([3]; tobacco overexpressing Chlorella fusca SDPS (SEQ ID NO. 10)): does not increase tolerance
